Laboratory results reported in patent US9745328B2, “Flap modulators” (JANSSEN PHARMACEUTICA NV, priority 2013, dated 2017).

target: human FLAP (Homo sapiens (Human), UniProt P20292); assay: FLAP binding assay (HTRF format); conditions: Table 6 (additional runs), human FLAP wild type
Experimental: The ability of the compounds of the present invention to treat a FLAP-mediated disease and/or disorder, or associated symptoms or complications thereof, was determined using the following procedures. Binding assay data represent the average value obtained from two different assay plates, with samples run in duplicate on each plate. Human whole blood assay data represent a single replicate on an assay plate using whole blood from at least one healthy donor.
Data are expressed as a HTRF ratio.

Sequence of human FLAP (P20292 whole entry): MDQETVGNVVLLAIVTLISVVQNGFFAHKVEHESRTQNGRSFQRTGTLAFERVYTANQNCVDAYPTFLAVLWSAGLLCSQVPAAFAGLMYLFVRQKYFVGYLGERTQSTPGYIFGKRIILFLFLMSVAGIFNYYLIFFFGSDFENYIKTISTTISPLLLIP

Question: How did the Ki turn out when `CN1CCCC[C@@H](NS(=O)(=O)c2ccccc2-c2ccc(-c3cnc(N)cn3)c(F)c2)C1=O` [Example 29, (S)-4′-(5-Aminopyrazin-2-yl)-3′-fluoro-N-[(3S)-1-methyl-2-oxoazepan-3-yl]biphenyl-2-sulfonamide] was run?
Answer: 63.2 nM

Question: Which Ki does the source give for `Nc1cnc(-c2ccc(-c3ccccc3NS(=O)(=O)C3CC3)cc2F)cn1` [Example 38, N-(4′-(5-aminopyrazin-2-yl)-3′-fluoro-[1,1′-biphenyl]-2-yl)cyclopropanesulfonamide] here?
Answer: 28.8 nM

Question: For `Nc1cnc(-c2ccc(-c3ccccc3NS(=O)(=O)C(F)(F)F)cc2F)cn1` [Example 41, N-[4′-(5-Aminopyrazin-2-yl)-3′-fluorobiphenyl-2-yl]-1,1,1-trifluoromethanesulfonamide], which Ki is on record?
Answer: 10.6 nM

Question: `CN(C)S(=O)(=O)c1ccccc1-c1ccc(-c2cnc(N)cn2)c(F)c1` [Example 42, 4′-(5-Aminopyrazin-2-yl)-3′-fluoro-N,N-dimethylbiphenyl-2-sulfonamide] was tested. Which Ki did it give?
Answer: 10.2 nM

Question: `Nc1cnc(-c2ccc(-c3ccccc3S(=O)(=O)N3CCOCC3)cc2F)cn1` [Example 44, 5-[3-Fluoro-2′-(morpholin-4-ylsulfonyl)biphenyl-4-yl]pyrazin-2-amine] was tested. Which Ki did it give?
Answer: 6.5 nM

Question: Which Ki does the source give for `CCN(CC)S(=O)(=O)c1ccccc1-c1ccc(-c2cnc(N)cn2)c(F)c1` [Example 47, 4′-(5-Aminopyrazin-2-yl)-N,N-diethyl-3′-fluorobiphenyl-2-sulfonamide] here?
Answer: 1.6 nM

Question: How did the Ki turn out when `Nc1cnc(-c2ccc(-c3ccccc3S(=O)(=O)N3CCCC3)cc2F)cn1` [Example 48, 5-[3-Fluoro-2′-(pyrrolidin-1-ylsulfonyl)biphenyl-4-yl]pyrazin-2-amine] was run?
Answer: 7 nM

Question: Which Ki does the source give for `Nc1cnc(-c2ccc(-c3ccccc3S(=O)(=O)N3CCCC(F)(F)C3)cc2F)cn1` [Example 50, 5-{2′-[(3,3-Difluoropiperidin-1-yl)sulfonyl)-3-fluorobiphenyl-4-yl}pyrazin-2-amine] here?
Answer: 1.3 nM

Question: For `Nc1cnc(-c2ccc(-c3ccccc3S(=O)(=O)N3CCC(F)(F)C3)cc2F)cn1` [Example 51, 5-{2′-[(3,3-Difluoropyrrolidin-1-yl)sulfonyl]-3-fluorobiphenyl-4-yl}pyrazin-2-amine], which Ki is on record?
Answer: 3.8 nM

Question: How did the Ki turn out when `Nc1cnc(-c2ccc(-c3ccccc3S(=O)(=O)N3CC(F)(F)C3)cc2F)cn1` [Example 52, 5-{2′-[(3,3-Difluoroazetidin-1-yl)sulfonyl]-3-fluorobiphenyl-4-yl}pyrazin-2-amine] was run?
Answer: 3.7 nM

Question: With `Nc1cnc(-c2ccc(-c3ccccc3S(=O)(=O)N3CCCCCC3)cc2F)cn1` [Example 53, 5-[2′-(Azepan-1-ylsulfonyl)-3-fluorobiphenyl-4-yl]pyrazin-2-amine] as the compound, how does the Ki read?
Answer: 3.3 nM

Question: For `Nc1cnc(-c2ccc(-c3ccccc3S(=O)(=O)N3CCC(O)(C(F)(F)F)CC3)cc2F)cn1` [Example 55, 1-{[4′-(5-Aminopyrazin-2-yl)-3′-fluorobiphenyl-2-yl]sulfonyl}-4-(trifluoromethyl)piperidin-4-ol], which Ki is on record?
Answer: 1.1 nM

Question: For `CS(=O)(=O)N1CCN(S(=O)(=O)c2ccccc2-c2ccc(-c3cnc(N)cn3)c(F)c2)CC1` [Example 56, 5-(3-Fluoro-2′-{[4-(methylsulfonyl)piperazin-1-yl]sulfonyl}biphenyl-4-yl)pyrazin-2-amine], which Ki is on record?
Answer: 8.8 nM

Question: For `CC(=O)N1CCN(S(=O)(=O)c2ccccc2-c2ccc(-c3cnc(N)cn3)c(F)c2)CC1` [Example 57, 5-{2′-[(4-Acetylpiperazin-1-yl)sulfonyl]-3-fluorobiphenyl-4-yl}pyrazin-2-amine], which Ki is on record?
Answer: 13.4 nM

Question: Which Ki does the source give for `Nc1cnc(-c2ccc(-c3ccccc3S(=O)(=O)N3CCN(C(=O)C4CC4)CC3)cc2F)cn1` [Example 58, 5-(2′-{[4-(Cyclopropylcarbonyl)piperazin-1-yl]sulfonyl}-3-fluoroblphenyl-4-yl)pyrazin-2-amine] here?
Answer: 4.6 nM

Question: With `Nc1cnc(-c2ccc(-c3ccccc3S(=O)(=O)N3CCC(N)CC3)cc2F)cn1` [Example 65, 5-{2′-[(4-Aminopiperidin-1-yl)sulfonyl]-3-fluorobiphenyl-4-yl}pyrazin-2-amine] as the compound, how does the Ki read?
Answer: 63.3 nM
